pIC50: −log10 of the molar value.

The test system of this experiment is NCI-H1703 cells. The experiment is described as follows: GLS Cell Proliferation Assay (NCI-H1703 cell proliferation). Conditions: Homo sapiens, NCI-H1703, 120 h, NCI-H1703 cells, 5 days; read-out: Assay c) Prolif Mean IC50. It counts as cell-based. An excerpt:
The following assays were used to measure the effects of the compounds described herein: a) GLS Enzyme Potency Assay; b) GLS Cell Potency Assay; c) GLS Cell Proliferation Assay. During the description of the assays, generally: • i. The following abbreviations have been used: CO2=Carbon dioxide; DMEM=Dulbecco's Modified Eagle Medium; DMSO=Dimethyl sulphoxide; EDTA=Ethylenediaminetetraacetic acid; EGTA=Ethylene glycol tetraacetic acid; FCS=Foetal calf serum; h=Hour(s); NBS=Non-binding surface; SDS=Sodium dodecyl sulphate; TRIS=Tris(Hydroxymethyl)aminomethane. • ii. IC50 values were calculated using a smart fitting model in Genedata.
Assay c): GLS Cell Proliferation Assay
The ability of compounds to inhibit cell growth was measured using a 384 well plate NCI-H1703 cell proliferation assay. NCI-H1703 cells were grown in phenol red free RPMI1640, 10% FCS and 2 mM glutamine and seeded at a density of 750 cells per well in 40 μl of growth medium into clear-bottom 384 well assay plates (Corning product code 3712) and incubated for 24 h at 37° C., 5% CO2. […] DMSO concentration was maintained at 0.3% by back filling with DMSO solution. Plates were incubated for 5 days at 37° C., 5% CO2, Sytox Green and Saponin added to final concentration of 2 μM and 0.25% respectively and incubated for 6 h prior to analysis. […] IC50 values were calculated by curve fitting to max inhibition of day zero growth using GeneData software analysis.
In general, pIC50 refers to the IC50 on a negative log10 scale, so that one unit is a factor of ten. As to `COC1CN(c2cccc([C@H](OC)C(=O)Nc3nnc(N[C@@H]4CCN(c5cccnn5)C4)s3)c2)C1` (single isomer, unassigned) [3(b)], the pIC50 is 6.57.

For the compound `COc1cc(OC)cc([C@H](OC)C(=O)Nc2nnc(N[C@@H]3CCN(c4ccc(C)nn4)C3)s2)c1` (single isomer, unassigned) [4(b)], the pIC50 is 7.56.

For the compound `CO[C@H](C(=O)Nc1nnc(N[C@@H]2CCN(c3cccnn3)C2)s1)c1ccc(F)c(N2CC(F)C2)c1` (single isomer, unassigned) [8(b)], the pIC50 is 7.41.

`CO[C@H](C(=O)Nc1nnc(N[C@@H]2CCN(c3cccnn3)C2)s1)c1cccc(C2COC2)c1` (single isomer, unassigned) [18(b)]: the pIC50 is 6.16.

`COC[C@H](C(=O)Nc1nnc(N[C@@H]2CCN(c3ccc(C)nn3)C2)s1)c1ccccc1` (single isomer, unassigned) [45(b)]: the pIC50 is 8.04.

`CO[C@H](C(=O)Nc1nnc(N[C@@H]2CCN(c3cccnn3)C2)s1)c1cccc(N2CC(F)C2)c1` (single isomer, unassigned) [Example 1(a)]: the pIC50 was 8.59.

`CO[C@H](C(=O)Nc1nnc(N[C@@H]2CCN(c3cccnn3)C2)s1)c1cccc(N2CC(F)C2)c1` (single isomer, unassigned) [Example 1(b)]: the pIC50 is 6.88.

As for `COC1CN(c2cccc([C@H](OC)C(=O)Nc3nnc(N[C@@H]4CCN(c5cccnn5)C4)s3)c2)C1` (single isomer, unassigned) [Example 3(a)], the pIC50 is 8.58.

For the compound `COc1cc(OC)cc([C@H](OC)C(=O)Nc2nnc(N[C@@H]3CCN(c4ccc(C)nn4)C3)s2)c1` (single isomer, unassigned) [Example 4(a)], the pIC50 was 8.53.

On to `COC(C(=O)Nc1nnc(N[C@@H]2CCN(c3cccnn3)C2)s1)c1cccc(C2COC2)c1` (single isomer, unassigned) [Example 18(a)], for which the pIC50 is 7.87.

Regarding `COCC(C(=O)Nc1nnc(N[C@@H]2CCN(c3ccc(C)nn3)C2)s1)c1ccccc1` (single isomer, unassigned) [Example 45(a)], the pIC50 is 5.64.

Take `COC(C(=O)Nc1nnc(N[C@@H]2CCN(c3ccc(F)nn3)C2)s1)c1cccc(N2CC(F)(F)C2)c1` (stereo partly drawn) [Example 42, 2-[3-(3,3-difluoroazetidin-1-yl)phenyl]-N-[5-[[(3R)-1-(6-fluoropyridazin-3-yl)pyrrolidin-3-yl]amino]-1,3,4-thiadiazol-2-yl]-2-methoxy-acetamide]: the pIC50 was 7.09.
